Laboratory results taken from patent US4223039A, “Therapeutically useful N-phenylaniline derivatives” (priority 1978, dated 1980).
Where a name gives a salt, the structure may show the parent alone.

Assays:
[1] = Acute toxicity in mice after oral administration; conditions: mouse, in vivo, suspended in 10% gum arabic, survivors checked at 15 days
Procedure: The compounds have been administered at increasing doses (in geometric progression) to groups of five .female. SWISS, EOPS, NMRI/Han mice originating from the breeding of EVIC CEBA and of mean weight 25 g.
For oral administration, they are suspended in a 10% gum arabic solution.
The LD 50s are calculated by the method of Behrens (B) and Karber (C), (Arch. Exp. Path. Pharmakol. 1935, 177, 379-388).
The number of animals surviving in the different groups is finally checked 15 days after administration of the compounds.

[2] = test system: painful syndrome provoked in mice by phenylbenzoquinone; experiment: animal or person; format: in vivo; conditions: for Therapeutic Index LD 50/ED 50 / therapeutic index (in words): mice; for Therapeutic Index LD 50/ED 50: LD 50 (oral)/ED 50 (phenylbenzoquinone test); for therapeutic index (in words): LD 50/ED 50
Procedure: There is used the phenylbenzoquinone test according to a technique adapted from that of Siegmund (E), Proc. Soc. Exp. Biol. Med. 1957, 95, No. 4, 729-731.
It is attempted to antagonise, by previous administration (30 minutes before) of the test compounds, the painful syndrome provoked in mice (groups of 10 animals) by interperitoneal injection of phenylbenzoquinone and characterised by intermittent contractions of the abdomen, periodic torsions of the trunk and extension of the rear paws. The number of symtoms is counted for 20 minutes after administration of the phenylbenzoquinone to the control and treated groups and the percentage protection relative to the control group calculated.
For the most interesting compounds, studied at several doses chosen in geometric progression of ratio 2, the effective doses 50% (ED 50) which reduce by 50% the effects provoked by phenylbenzoquinone are determined. These ED 50s are sorted according to their limits of confidence calculated for a probability p=0.05 according to the method of Litchfield (J. T.) and Wilcoxon (F. A.), J. Pharmacol. Exp. Ther. 1949, 96, 99-113.
Calculation of the therapeutic index (LD 50/ED 50) enables appreciation of the interest of the compounds.

[3] = Solubility in distilled water; format: physicochemical
[4] = Mus musculus, read-out: Percentage Protection

## CC(=O)Oc1ccccc1C(=O)O [Aspirin, reference compound]
[1]
  LD50 at 360 h: 1500 mg/kg
[2]; Mus musculus
  ED50: 60 mg/kg
[2]; [4]
  inhibition in vivo at 9.4 mg/kg: 4%
  inhibition in vivo at 18.75 mg/kg: 20%
  inhibition in vivo at 37.5 mg/kg: 31%
  inhibition in vivo at 75 mg/kg: 56%
  inhibition in vivo at 150 mg/kg: 82%
  inhibition in vivo at 300 mg/kg: 95%
[2]
  Therapeutic Index LD 50/ED 50: 25

## CC(Nc1cccc(C(=O)c2ccccc2)c1)C(=O)O (stereo not shown) [LJ 843, The lysine salt of N-(3-benzoylphenyl)alanine monohydrate]
[1]
  LD50 at 360 h: 3750 mg/kg
[2]; Mus musculus
  ED50: 25 mg/kg
[2]; [4]
  inhibition in vivo at 11.75 mg/kg: 30%
  inhibition in vivo at 23.5 mg/kg: 38%
  inhibition in vivo at 47 mg/kg: 66%
  inhibition in vivo at 93.75 mg/kg: 84%
  inhibition in vivo at 187.5 mg/kg: 91%
[2]
  Therapeutic Index LD 50/ED 50: 150
  therapeutic index (in words): very favourable therapeutic index
[3]
  solubility in distilled water: very soluble in distilled water

## CC(Nc1cccc(C(=O)c2ccc(Cl)cc2)c1)C(=O)O (stereo not shown) [LJ 845]
[1]
  LD50 at 360 h: 1750 mg/kg
[2]; [4]
  inhibition in vivo at 87.5 mg/kg: 75%

## Cc1c(NCC(=O)O)cccc1C(=O)c1ccc(Cl)cc1 [LJ 846, N-[3-(4-Chlorobenzoyl)-2-methyl-phenyl]glycine]
[1]
  LD50 at 360 h: 1600 mg/kg
[2]; Mus musculus
  ED50: 18 mg/kg
[2]; [4]
  inhibition in vivo at 5 mg/kg: 6%
  inhibition in vivo at 10 mg/kg: 40%
  inhibition in vivo at 20 mg/kg: 48%
  inhibition in vivo at 40 mg/kg: 75%
  inhibition in vivo at 80 mg/kg: 90%
[2]
  Therapeutic Index LD 50/ED 50: 89
  therapeutic index (in words): very favourable therapeutic index

## O=C(O)CNc1cccc(C(=O)c2ccccc2)c1 [LJ 850]
[1]
  LD50 at 360 h: 675 mg/kg
[2]; [4]
  inhibition in vivo at 33.75 mg/kg: 28%

## CC(Nc1ccc(C(=O)c2ccccc2)cc1)C(=O)O (stereo not shown) [LJ 854]
[1]
  LD50 at 360 h: 1880 mg/kg
[2]; Mus musculus
  ED50: 32 mg/kg
[2]; [4]
  inhibition in vivo at 5.8 mg/kg: 6%
  inhibition in vivo at 11.75 mg/kg: 11%
  inhibition in vivo at 23.5 mg/kg: 25%
  inhibition in vivo at 47 mg/kg: 84%
  inhibition in vivo at 93.75 mg/kg: 90%
[2]
  Therapeutic Index LD 50/ED 50: 58

## CC(Nc1ccccc1C(=O)c1ccccc1)C(=O)O (stereo not shown) [LJ 855]
[1]
  LD50 at 360 h: 1000 mg/kg
[2]; Mus musculus
  ED50: 16 mg/kg
[2]; [4]
  inhibition in vivo at 3.1 mg/kg: 10%
  inhibition in vivo at 6.25 mg/kg: 14%
  inhibition in vivo at 12.5 mg/kg: 37%
  inhibition in vivo at 25 mg/kg: 73%
  inhibition in vivo at 50 mg/kg: 92%
[2]
  Therapeutic Index LD 50/ED 50: 62

## Cc1c(NC(C)C(=O)O)cccc1C(=O)c1ccc(Cl)cc1 (stereo not shown) [LJ 857]
[1]
  LD50 at 360 h: 1250 mg/kg
[2]; [4]
  inhibition in vivo at 62.5 mg/kg: 64%

## CC(Nc1ccc(C(=O)c2cccs2)cc1)C(=O)O (stereo not shown) [LJ 858]
[1]
  LD50 at 360 h: 1880 mg/kg
[2]; [4]
  inhibition in vivo at 93.75 mg/kg: 78%
